The values below come from patent US10399940B2, “Substituted pyrrolidines and methods of use” (AbbVie S.à.r.l., priority 2016, dated 2019).

For orientation: EC50 means the concentration at which the effect is half-maximal.

Read-outs that look alike come from different tables or passages of the source.

The target of this assay is T1, F508delCFTR (Homo sapiens, UniProt P13569, DEL508-508).
T1 construct: expressed in transfected cells; host or cells: CFBE41o- (human lung derived epithelial cell line), doxycycline-inducible expression
T1 sequence (P13569 with tags, fused parts or gaps DEL508-508): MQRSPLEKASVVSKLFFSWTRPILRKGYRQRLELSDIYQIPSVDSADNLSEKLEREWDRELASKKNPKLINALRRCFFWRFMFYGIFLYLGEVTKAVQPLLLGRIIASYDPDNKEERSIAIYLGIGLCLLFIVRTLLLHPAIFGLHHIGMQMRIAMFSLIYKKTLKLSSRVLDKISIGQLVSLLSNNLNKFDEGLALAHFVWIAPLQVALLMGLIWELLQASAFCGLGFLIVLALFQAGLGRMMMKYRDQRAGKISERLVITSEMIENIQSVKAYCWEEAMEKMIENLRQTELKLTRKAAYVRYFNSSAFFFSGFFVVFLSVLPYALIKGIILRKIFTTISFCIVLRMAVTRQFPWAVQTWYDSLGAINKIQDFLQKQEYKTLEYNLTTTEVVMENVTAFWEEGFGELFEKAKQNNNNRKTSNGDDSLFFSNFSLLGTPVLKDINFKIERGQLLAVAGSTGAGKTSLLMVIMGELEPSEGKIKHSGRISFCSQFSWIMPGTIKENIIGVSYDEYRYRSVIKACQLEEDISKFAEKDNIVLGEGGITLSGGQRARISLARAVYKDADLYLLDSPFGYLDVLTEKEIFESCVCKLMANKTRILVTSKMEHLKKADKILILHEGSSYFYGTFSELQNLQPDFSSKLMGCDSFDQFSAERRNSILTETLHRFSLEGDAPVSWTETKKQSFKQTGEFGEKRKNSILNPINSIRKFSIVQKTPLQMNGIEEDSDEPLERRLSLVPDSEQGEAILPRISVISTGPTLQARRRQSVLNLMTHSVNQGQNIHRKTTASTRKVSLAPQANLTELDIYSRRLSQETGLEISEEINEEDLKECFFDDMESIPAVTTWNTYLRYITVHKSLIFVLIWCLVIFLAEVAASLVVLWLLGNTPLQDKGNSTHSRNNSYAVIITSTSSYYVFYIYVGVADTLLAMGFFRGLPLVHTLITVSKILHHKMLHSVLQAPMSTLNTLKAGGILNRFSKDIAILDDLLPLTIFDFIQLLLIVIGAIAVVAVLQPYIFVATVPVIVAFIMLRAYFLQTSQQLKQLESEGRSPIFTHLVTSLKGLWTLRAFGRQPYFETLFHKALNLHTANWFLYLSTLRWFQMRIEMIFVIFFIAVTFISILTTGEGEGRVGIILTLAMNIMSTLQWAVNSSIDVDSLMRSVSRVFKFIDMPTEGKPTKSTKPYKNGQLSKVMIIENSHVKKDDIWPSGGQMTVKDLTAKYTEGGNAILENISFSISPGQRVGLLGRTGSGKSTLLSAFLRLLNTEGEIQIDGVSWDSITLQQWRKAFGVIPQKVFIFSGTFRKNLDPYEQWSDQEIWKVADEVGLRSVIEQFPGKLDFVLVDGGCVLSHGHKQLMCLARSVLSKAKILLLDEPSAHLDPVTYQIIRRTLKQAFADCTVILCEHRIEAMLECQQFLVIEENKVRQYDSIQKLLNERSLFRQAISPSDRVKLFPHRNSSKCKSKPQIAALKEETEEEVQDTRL
Nature of the assay: Cell Surface Expression-Horse Radish Peroxidase (CSE-HRP) assay. The assay is classed as cell-based. The note with it: CFBE41o-F508delCFTR-HRP cells; for Maximum % activity (with co-corrector): with co-corrector (2 μM); for Maximum % activity (with co-corrector) / Maximum % activity (without co-corrector): normalized to on-plate positive control, highest concentration 20 μM. In short, it runs like this: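 Surface F508delCFTR-HRP was read by luminol luminescence after 18–24 h compound exposure at 33 °C, without or with 2 μM co-corrector. Doses were eight 3-fold steps from 20 μM, in doxycycline-induced (0.5 μg/mL, 72 h) CFBE41o- cells. % activity was scaled to the on-plate 2 μM positive control minus DMSO; EC50 came from a variable-slope sigmoid fit.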

[1] abbreviates: test compound without co-corrector, 18-24 hours at 33° C., read-out: EC50 (without co-corrector).
Setting [2] is: with co-corrector (2 μM of 3-[(2R,4R)-4-({[1-(2,2-difluoro-1,3-benzodioxol-5-yl)cyclopropyl]carbonyl}amino)-7-methoxy-3,4-dihydro-2H-chromen-2-yl]benzoic acid), read-out: EC50 (with co-corrector).

With `CC(C)OC(=O)N1[C@H](C(=O)O)[C@@H](C(C)(C)C)[C@H](OCc2cc(C(F)(F)F)cnc2O)[C@@H]1c1ccccc1` [Example 107, (2S,3R,4S,5S)-3-tert-butyl-4-{[2-hydroxy-5-(trifluoromethyl)pyridin-3-yl]methoxy}-5-phenyl-1-{[(propan-2-yl)oxy]carbonyl}pyrrolidine-2-carboxylic acid], the “Maximum % activity (with co-corrector)” value is “++ (≥150 and <350)”; the “Maximum % activity (without co-corrector)” value was “+ (<100)”. The EC50 under setting [1] was 1000 to 10000 nM. Further, the EC50 under setting [2] was 1000 to 10000 nM.

For the compound `COc1ncc(C(F)(F)F)cc1CO[C@H]1[C@H](C(C)(C)C)[C@@H](C(=O)O)N(C(=O)OC(C)C)[C@H]1c1ccccc1C1=CCOCC1` [Example 108, (2S,3R,4S,5S)-3-tert-butyl-5-[2-(3,6-dihydro-2H-pyran-4-yl)phenyl]-4-{[2-methoxy-5-(trifluoromethyl)pyridin-3-yl]methoxy}-1-{[(propan-2-yl)oxy]carbonyl}pyrrolidine-2-carboxylic acid], the “Maximum % activity (with co-corrector)” value was “+++ (≥350)”; the “Maximum % activity (without co-corrector)” value is “++ (≥100 and <200)”. For the same compound, the concentration for a half-maximal effect (EC50) under setting [1] was in the range of 1000 to 10000 nM. Further, under setting [2], the EC50 lay within 1000 to 10000 nM.

Regarding `COc1ncc(C(F)(F)F)cc1CO[C@H]1[C@H](C(C)(C)C)[C@@H](C(=O)O)N(C(=O)[C@H]2CCOC2)[C@H]1c1ccccc1C(C)C` [Example 109, (2S,3R,4S,5S)-3-tert-butyl-4-{[2-methoxy-5-(trifluoromethyl)pyridin-3-yl]methoxy}-1-[(3S)-oxolane-3-carbonyl]-5-[2-(propan-2-yl)phenyl]pyrrolidine-2-carboxylic acid], the “Maximum % activity (with co-corrector)” value is “++ (≥150 and <350)”; the “Maximum % activity (without co-corrector)” value is given as “+ (<100)”. In addition, the 50% effective concentration (EC50) under setting [1] is 1000 to 10000 nM. Under setting [2], the EC50 lay in the range of 1000 to 10000 nM.

For the compound `COc1ncc(C(F)(F)F)cc1CO[C@H]1[C@H](C(C)(C)C)[C@@H](C(=O)O)N(C(=O)C2CCOCC2)[C@H]1c1ccccc1C(C)C` [Example 110, (2S,3R,4S,5S)-3-tert-butyl-4-{[2-methoxy-5-(trifluoromethyl)pyridin-3-yl]methoxy}-1-(oxane-4-carbonyl)-5-[2-(propan-2-yl)phenyl]pyrrolidine-2-carboxylic acid], the “Maximum % activity (with co-corrector)” value was “+++ (≥350)”; the “Maximum % activity (without co-corrector)” value is “++ (≥100 and <200)”. In addition, under setting [1], the concentration giving a half-maximal response (EC50) fell in the range of 1000 to 10000 nM. Further, under setting [2], the half-maximal effective concentration (EC50) was in the range of 1000 to 10000 nM.

For `COc1ncc(C(F)(F)F)cc1CO[C@H]1[C@H](C(C)(C)C)[C@@H](C(=O)O)N(C(=O)[C@@H]2CCOC2)[C@H]1c1ccccc1C(C)C` [Example 111, (2S,3R,4S,5S)-3-tert-butyl-4-{[2-methoxy-5-(trifluoromethyl)pyridin-3-yl]methoxy}-1-[(3R)-oxolane-3-carbonyl]-5-[2-(propan-2-yl)phenyl]pyrrolidine-2-carboxylic acid], the “Maximum % activity (with co-corrector)” value was “+++ (≥350)”; the “Maximum % activity (without co-corrector)” value is “++ (≥100 and <200)”. In addition, the 50% effective concentration (EC50) under setting [1] was in the range of 1000 to 10000 nM. In addition, the EC50 under setting [2] is 1000 to 10000 nM.

As to `COc1ncc(C(F)(F)F)cc1CO[C@H]1[C@H](C(C)(C)C)[C@@H](C(=O)O)N(C(=O)[C@@H]2CCCO2)[C@H]1c1ccccc1C1CC1` [Example 112, (2S,3R,4S,5S)-3-tert-butyl-5-(2-cyclopropylphenyl)-4-{[2-methoxy-5-(trifluoromethyl)pyridin-3-yl]methoxy}-1-[(2S)-oxolane-2-carbonyl]pyrrolidine-2-carboxylic acid], the “Maximum % activity (with co-corrector)” value was “+++ (≥350)”; the “Maximum % activity (without co-corrector)” value is “++ (≥100 and <200)”. In addition, the half-maximal effective concentration (EC50) under setting [1] was in the range of 1000 to 10000 nM. Further, the concentration giving a half-maximal response (EC50) under setting [2] is less than 1000 nM.

For `COc1ccc(C(F)(F)F)cc1CO[C@H]1[C@H](C(C)(C)C)[C@@H](C(=O)O)N(C(=O)[C@@H]2CCCO2)[C@H]1c1cccnc1C(F)(F)F` [Example 113, (2S,3R,4S,5S)-3-tert-butyl-4-{[2-methoxy-5-(trifluoromethyl)phenyl]methoxy}-1-[(2S)-oxolane-2-carbonyl]-5-[2-(trifluoromethyl)pyridin-3-yl]pyrrolidine-2-carboxylic acid], the “Maximum % activity (with co-corrector)” value is “++ (≥150 and <350)”; the “Maximum % activity (without co-corrector)” value is “+ (<100)”. Also, under setting [1], the 50% effective concentration (EC50) lay within 1000 to 10000 nM. Moreover, the EC50 under setting [2] was in the range of 1000 to 10000 nM.

Take `COc1ccc(C(F)(F)F)cc1CO[C@@H]1[C@H](C(C)(C)C)[C@@H](C(=O)O)N(C(=O)[C@@H]2CCCO2)[C@H]1c1cccnc1C(F)(F)F` [Example 114, (2S,3R,4R,5S)-3-tert-butyl-4-{[2-methoxy-5-(trifluoromethyl)phenyl]methoxy}-1-[(2S)-oxolane-2-carbonyl]-5-[2-(trifluoromethyl)pyridin-3-yl]pyrrolidine-2-carboxylic acid]: the “Maximum % activity (with co-corrector)” value was “+ (<150)” and the “Maximum % activity (without co-corrector)” value is reported as “+ (<100)”. Also, the concentration giving a half-maximal response (EC50) under setting [1] was more than 10000 nM. Further, the 50% effective concentration (EC50) under setting [2] was more than 10000 nM.

Turning to `COc1ncc(C(F)(F)F)cc1CO[C@H]1[C@H](C(C)(C)C)[C@@H](C(=O)O)N(C(=O)[C@@H]2CCCO2)[C@H]1c1ccccc1Cl` [Example 115, (2S,3R,4S,5S)-3-tert-butyl-5-(2-chlorophenyl)-4-{[2-methoxy-5-(trifluoromethyl)pyridin-3-yl]methoxy}-1-[(2S)-oxolane-2-carbonyl]pyrrolidine-2-carboxylic acid], the “Maximum % activity (with co-corrector)” value was “+++ (≥350)”; the “Maximum % activity (without co-corrector)” value is “++ (≥100 and <200)”. For the same compound, the EC50 under setting [1] lay in the range of 1000 to 10000 nM. Also, the EC50 under setting [2] is less than 1000 nM.

In the case of `COc1nc2ccccc2cc1CO[C@H]1[C@H](C(C)(C)C)[C@@H](C(=O)O)N(C(=O)[C@@H]2CCCO2)[C@H]1c1ccccc1C(C)C` [Example 116, (2S,3R,4S,5S)-3-tert-butyl-4-[(2-methoxyquinolin-3-yl)methoxy]-1-[(2S)-oxolane-2-carbonyl]-5-[2-(propan-2-yl)phenyl]pyrrolidine-2-carboxylic acid], the “Maximum % activity (with co-corrector)” value was “+++ (≥350)”; the “Maximum % activity (without co-corrector)” value was “++ (≥100 and <200)”. In addition, the EC50 under setting [1] was in the range of 1000 to 10000 nM. For the same compound, the EC50 under setting [2] is 1000 to 10000 nM.

For `COc1ncc(C(F)(F)F)cc1CO[C@H]1[C@H](C(C)(C)C)[C@@H](C(=O)O)N(C(=O)[C@@H]2CCCO2)[C@H]1c1cccc(C(C)C)c1` [Example 117, (2S,3R,4S,5S)-3-tert-butyl-4-{[2-methoxy-5-(trifluoromethyl)pyridin-3-yl]methoxy}-1-[(2S)-oxolane-2-carbonyl]-5-[3-(propan-2-yl)phenyl]pyrrolidine-2-carboxylic acid], the “Maximum % activity (with co-corrector)” value is “++ (≥150 and <350)”; the “Maximum % activity (without co-corrector)” value is given as “+ (<100)”. Besides, under setting [1], the EC50 is less than 1000 nM. The EC50 under setting [2] is less than 1000 nM.

Regarding `COc1ncc(C(F)(F)F)cc1CO[C@H]1[C@H](C(C)(C)C)[C@@H](C(=O)O)N(C(=O)[C@@H]2CCCO2)[C@H]1c1cccc(Br)c1` [Example 118, (2S,3R,4S,5S)-5-(3-bromophenyl)-3-tert-butyl-4-{[2-methoxy-5-(trifluoromethyl)pyridin-3-yl]methoxy}-1-[(2S)-oxolane-2-carbonyl]pyrrolidine-2-carboxylic acid], the “Maximum % activity (with co-corrector)” value is on record as “+++ (≥350)”; the “Maximum % activity (without co-corrector)” value was “++ (≥100 and <200)”. Moreover, the half-maximal effective concentration (EC50) under setting [1] fell in the range of 1000 to 10000 nM. Further, the EC50 under setting [2] is less than 1000 nM.

`COc1ncc(C(F)(F)F)cc1CO[C@H]1[C@H](C(C)(C)C)[C@@H](C(=O)O)N(C(=O)[C@@H]2CCCO2)[C@H]1c1cccc(Cl)c1` [Example 119, (2S,3R,4S,5S)-3-tert-butyl-5-(3-chlorophenyl)-4-{[2-methoxy-5-(trifluoromethyl)pyridin-3-yl]methoxy}-1-[(2S)-oxolane-2-carbonyl]pyrrolidine-2-carboxylic acid]: the “Maximum % activity (with co-corrector)” value is recorded as “+++ (≥350)”; the “Maximum % activity (without co-corrector)” value is “++ (≥100 and <200)”. Moreover, under setting [1], the EC50 is 1000 to 10000 nM. The 50% effective concentration (EC50) under setting [2] fell in the range of 1000 to 10000 nM.

For `COc1ncc(C(F)(F)F)cc1CO[C@H]1[C@H](C(C)(C)C)[C@@H](C(=O)O)N(C(=O)[C@@H]2CCCO2)[C@H]1c1cccc(C2CC2)c1` [Example 120, (2S,3R,4S,5S)-3-tert-butyl-5-(3-cyclopropylphenyl)-4-{[2-methoxy-5-(trifluoromethyl)pyridin-3-yl]methoxy}-1-[(2S)-oxolane-2-carbonyl]pyrrolidine-2-carboxylic acid], the “Maximum % activity (with co-corrector)” value is “++ (≥150 and <350)”; the “Maximum % activity (without co-corrector)” value is “+ (<100)”. The EC50 under setting [1] is 1000 to 10000 nM. Also, under setting [2], the 50% effective concentration (EC50) was less than 1000 nM.

Consider `COc1ncc(C(F)(F)F)cc1CO[C@H]1[C@H](C(C)(C)C)[C@@H](C(=O)O)N(C(=O)[C@@H]2CCCO2)[C@H]1c1cccc(C(C)(C)C)c1` [Example 121, (2S,3R,4S,5S)-3-tert-butyl-5-(3-tert-butylphenyl)-4-{[2-methoxy-5-(trifluoromethyl)pyridin-3-yl]methoxy}-1-[(2S)-oxolane-2-carbonyl]pyrrolidine-2-carboxylic acid], for which the “Maximum % activity (with co-corrector)” value was “++ (≥150 and <350)”; the “Maximum % activity (without co-corrector)” value is “+ (<100)”. Also, the EC50 under setting [1] was less than 1000 nM. For the same compound, the EC50 under setting [2] is less than 1000 nM.
